Test results as given in patent publication US20240277829A1, “HIV-1 VACCINATION AND SAMT-247 MICROBICIDE TO PREVENT HIV-1 INFECTION” (priority 2021, published 2024).

What was measured:
Format in all cases: cell-based
NKG2A^+ NK cells = experiment: Intracellular cytokines of human blood NK cells using SAMT-247 and PMA stimulation with or without zinc chelator; details: human PBMCs
Method: (§1) Intracellular cytokines of Human blood NK cells using SAMT-247 and PMA stimulation with or without zinc chelator. The levels of NKG2A^+ NK cells were measured in blood of healthy humans. Human PBMCs were thawed and cultured in R10 in the presence or absence of SAMT-247 and/or PMA for 12 hours. Cells were incubated with or without Zinc chelator TPEN (cat. #P4413-100 MG, 5 μM) for 12 h. Subsequently, PBMCs were surface stained with the following: BUV737 anti-CD3 (SP34-2; cat. #741872, 5 μl), Alexa700 anti-CD20 (2H7; cat. #560631, 5 μl), BV786 anti-CD45 (HI30; cat. #563716, 5 μl) from BD Biosciences; APC-H7 anti-CD11b (ICRF44; cat. #47-0118-42, 5 μl) from eBioscience and PE-Cy7 anti-NKG2A (Z199; cat. #B10246, 5 μl) from Beckman coulter for 30 minutes at room temperature. This was followed by permeabilization with FOX3-transcription buffer set (cat. #00-5523-00) from eBioscience according to the manufacture's recommendation and subsequently intracellular staining with the following: BV750 anti-TNF-α (MAB11; cat. #566359, 5 μl), BUV396 anti-IFN-γ (B27; cat. #563563, 5 μl), BV510 anti-GranB (GB11; cat. #563388, 5 μl) from BD Biosciences; and FITC anti-Perforin (pf-344; cat. #3465-7, 5 μl) from MABTECH for 30 minutes at room temperature. Flow cytometry acquisitions were performed on a FACSymphony A5 and examined using FACSDIVA™ software (BD Biosciences).

[1] = tested on: macaque rectal mucosal NK cells; experiment: Frequencies and cytokine levels of macaque rectal mucosal NK/ILCs following SAMT-247 and PMA stimulation
From the text: Additionally, rectal tissue from 9 macaques was used for an in vitro study. The age-matched macaques from this separate study (P204) included 4 animals vaccinated against HIV and 5 naïve animals, all challenged with SHIV. Rectal tissue was obtained post challenge from 7 infected and 2 uninfected animals for the P204 study analysis. Extra cells were available from that collection and were used here for the in vitro study.
Frequencies and cytokine levels of macaque rectal mucosal NK cells and T cells following SAMT-247 and PMA stimulation. NK/ILC and T cell frequencies and cytokine levels were measured in macaque rectal mucosa. Freshly collected rectal biopsies were processed to single cells and cultured in R10 in the presence/or absence of SAMT-247 and/or PMA for 12 hours. Subsequently, cells were stained for live cells with Live/Dead Blue dye (cat. #L34962, 0.5 μl) from Thermofisher; followed by surface staining with the following: BUV737 anti-CD3 (SP34-2; cat. #741872, 5 μl), BV711 anti-CD4 (L200; cat. #563913, 5 μl), BV650 anti-NKp44 (P44-8; cat. #744302, 5 μl), Alexa700 anti-CD20 (2H7; cat. #560631, 5 μl), BV786 anti-CD45 (D058-1283; cat. #563861, 5 μl) from BD Biosciences; APC-H7 anti-CD11b (ICRF44; cat. #47-0118-42, 5 μl), PE-Cy5 anti-CD95 (ICRF44; cat. #15-0959-42, 5 μl) from eBioscience; BV570 anti-CD8 (RPA-T8; cat. #301038, 5 μl), BV605 anti-CCR6 (G034E3; cat. #353420, 5 μl), APC anti-CXCR3 (G025H7; cat. #353708, 5 μl), from Biolegend and PE-Cy7 anti-NKG2A (Z199; cat. #B10246, 5 μl) from Beckman coulter for 30 minutes at room temperature. This was followed by permeabilization with a FOX3-transcription buffer set (cat. #00-5523-00) from eBioscience according to the manufacture's recommendation and subsequently intracellular staining with the following: BV750 anti-TNF-α (MAB11; cat. #566359, 5 μl), BUV395 anti-IFN-γ (B27; cat. #563563, 5 μl), BV510 anti-GranB (GB11; cat. #563388, 5 μl), BV421 anti-IL-10 (JES3-9D7; cat. #564053, 5 μl) from BD Biosciences; PE-Cy5.5 anti-IL-17 (BL168; cat. #512314, 5 μl) from Biolegend; and FITC anti-Perforin (pf-344; cat. #3465-7, 5 μl) from MABTECH for 30 minutes at room temperature. Flow cytometry acquisitions were performed on a FACSymphony A5 and examined using FACSDiva software (BD Biosciences).

NKG2A^+ cells = experiment: NKG2A^+ cells, blood and mucosa, PMA (Table 1 summary); details: * Zinc dependence
Method: as §1
Frequencies and cytokine levels of macaque rectal mucosal NK cells and T cells following SAMT-247 and PMA stimulation. NK/ILC and T cell frequencies and cytokine levels were measured in macaque rectal mucosa. Freshly collected rectal biopsies were processed to single cells and cultured in R10 in the presence/or absence of SAMT-247 and/or PMA for 12 hours. […]

[2] = macaque rectal mucosal NK cells, PMA

CC(=O)Sc1ccccc1C(=O)NCCC(N)=O [SAMT-247]
expression of granzyme, perforin, or cytokines (NKG2A^+ NK cells; absence of PMA stimulation): did not affect | percentage of IFN-γ and TNF-α producing NKG2A^+ cells (NKG2A^+ NK cells; presence of PMA): decreased | percentage of NKG2A^+ NK cells expressing granzyme B and perforin (NKG2A^+ NK cells; presence of PMA): increased | Cytokine ([1]; NKp44^+, Mucosa, PMA): >IL-17 | Function ([1]; NKp44^+, Mucosa, PMA): >Epithelium | IFN-γ and TNF-α production [1, 2]: decreased | NKG2A^+ cells expressing granzyme B and perforin [1, 2]: increased | percentage of NKp44^+ cells producing IL-17 ([1]; mucosal cells from 9 macaques exposed in vitro): augmented | ability of NKG2A^−NKp44^− cells to produce IFN-γ ([1]; mucosal cells in vitro): tended to decrease | frequency of the NKG2A^−NKp44^− population ([1]; mucosal cells in vitro): decreased | Cytokine (NKG2A^+ cells; IFN-γ): <IFN-γ * | Cytokine (NKG2A^+ cells; TNF-α): <TNF-α * | Cytokine (NKG2A^+ cells; granzyme and perforin): >Granzyme/Perforin
